ChEMBL document CHEMBL1201862, “PubChem BioAssay data set” (2004)
Activity calls are given as the source filed them.

Legend:
[1] = target: 5-hydroxytryptamine receptor 1E (Homo sapiens, UniProt P28566); experiment: Counterscreen assay for S1P3 antagonists: Dose response cell-based high throughput screening assay to identify antagonists of the 5-Hydroxytryptamine Receptor Subtype 1E (5HT1E). [Related pubchem assays: 1429, 485 ]; type: functional
[2] = target: Sphingosine 1-phosphate receptor 3 (Homo sapiens, UniProt Q99500); experiment: Dose response cell-based high throughput screening assay for antagonists of the Sphingosine 1-Phosphate Receptor 3 (S1P3). [Related pubchem assays: 1429, 485 ]; type: functional
Sequence of Sphingosine 1-phosphate receptor 3 (Q99500 whole entry): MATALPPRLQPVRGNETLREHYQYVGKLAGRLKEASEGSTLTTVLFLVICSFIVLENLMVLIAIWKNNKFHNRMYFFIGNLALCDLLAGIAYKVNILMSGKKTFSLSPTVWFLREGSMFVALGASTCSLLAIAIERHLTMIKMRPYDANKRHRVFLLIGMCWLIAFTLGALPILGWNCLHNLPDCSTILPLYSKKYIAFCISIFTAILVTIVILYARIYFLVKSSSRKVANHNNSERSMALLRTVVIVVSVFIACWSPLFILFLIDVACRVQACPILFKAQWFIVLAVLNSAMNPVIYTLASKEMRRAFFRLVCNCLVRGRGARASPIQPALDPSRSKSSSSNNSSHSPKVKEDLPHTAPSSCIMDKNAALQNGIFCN

[3] = target: Mucolipin-3 (Homo sapiens, UniProt Q8TDD5); experiment: Dose response cell-based high-throughput screening assay for agonists of the transient receptor potential channel ML3 (TRPML3). [Related pubchem assays: 1526, 1424, 1448 ]; type: functional
Sequence of Mucolipin-3 (Q8TDD5 whole entry): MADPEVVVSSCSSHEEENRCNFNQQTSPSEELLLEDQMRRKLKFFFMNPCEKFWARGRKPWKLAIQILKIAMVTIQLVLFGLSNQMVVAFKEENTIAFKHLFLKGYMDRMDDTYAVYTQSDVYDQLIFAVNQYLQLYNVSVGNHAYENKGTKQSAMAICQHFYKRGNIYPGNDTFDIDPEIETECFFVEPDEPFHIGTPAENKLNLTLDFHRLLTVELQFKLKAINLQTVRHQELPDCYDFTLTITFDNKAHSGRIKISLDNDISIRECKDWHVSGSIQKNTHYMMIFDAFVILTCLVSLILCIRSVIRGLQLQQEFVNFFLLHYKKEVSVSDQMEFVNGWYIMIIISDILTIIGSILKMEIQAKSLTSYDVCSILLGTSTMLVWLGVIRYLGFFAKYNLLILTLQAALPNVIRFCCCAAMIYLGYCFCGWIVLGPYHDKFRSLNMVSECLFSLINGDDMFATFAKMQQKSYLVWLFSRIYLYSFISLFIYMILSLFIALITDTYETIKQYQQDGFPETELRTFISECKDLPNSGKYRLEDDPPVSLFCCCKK

[4] = target: Ion channel NompC (Danio rerio, UniProt Q7T1G6); experiment: Fluorescence counterscreen assay for TRPML3 agonists: dose response cell-based high-throughput screening assay to identify agonists of the transient receptor potential channel N1 (TRPN1). [Related pubchem assays: 1526, 1424, 1448 ]; type: functional
Sequence of Ion channel NompC (Q7T1G6 whole entry): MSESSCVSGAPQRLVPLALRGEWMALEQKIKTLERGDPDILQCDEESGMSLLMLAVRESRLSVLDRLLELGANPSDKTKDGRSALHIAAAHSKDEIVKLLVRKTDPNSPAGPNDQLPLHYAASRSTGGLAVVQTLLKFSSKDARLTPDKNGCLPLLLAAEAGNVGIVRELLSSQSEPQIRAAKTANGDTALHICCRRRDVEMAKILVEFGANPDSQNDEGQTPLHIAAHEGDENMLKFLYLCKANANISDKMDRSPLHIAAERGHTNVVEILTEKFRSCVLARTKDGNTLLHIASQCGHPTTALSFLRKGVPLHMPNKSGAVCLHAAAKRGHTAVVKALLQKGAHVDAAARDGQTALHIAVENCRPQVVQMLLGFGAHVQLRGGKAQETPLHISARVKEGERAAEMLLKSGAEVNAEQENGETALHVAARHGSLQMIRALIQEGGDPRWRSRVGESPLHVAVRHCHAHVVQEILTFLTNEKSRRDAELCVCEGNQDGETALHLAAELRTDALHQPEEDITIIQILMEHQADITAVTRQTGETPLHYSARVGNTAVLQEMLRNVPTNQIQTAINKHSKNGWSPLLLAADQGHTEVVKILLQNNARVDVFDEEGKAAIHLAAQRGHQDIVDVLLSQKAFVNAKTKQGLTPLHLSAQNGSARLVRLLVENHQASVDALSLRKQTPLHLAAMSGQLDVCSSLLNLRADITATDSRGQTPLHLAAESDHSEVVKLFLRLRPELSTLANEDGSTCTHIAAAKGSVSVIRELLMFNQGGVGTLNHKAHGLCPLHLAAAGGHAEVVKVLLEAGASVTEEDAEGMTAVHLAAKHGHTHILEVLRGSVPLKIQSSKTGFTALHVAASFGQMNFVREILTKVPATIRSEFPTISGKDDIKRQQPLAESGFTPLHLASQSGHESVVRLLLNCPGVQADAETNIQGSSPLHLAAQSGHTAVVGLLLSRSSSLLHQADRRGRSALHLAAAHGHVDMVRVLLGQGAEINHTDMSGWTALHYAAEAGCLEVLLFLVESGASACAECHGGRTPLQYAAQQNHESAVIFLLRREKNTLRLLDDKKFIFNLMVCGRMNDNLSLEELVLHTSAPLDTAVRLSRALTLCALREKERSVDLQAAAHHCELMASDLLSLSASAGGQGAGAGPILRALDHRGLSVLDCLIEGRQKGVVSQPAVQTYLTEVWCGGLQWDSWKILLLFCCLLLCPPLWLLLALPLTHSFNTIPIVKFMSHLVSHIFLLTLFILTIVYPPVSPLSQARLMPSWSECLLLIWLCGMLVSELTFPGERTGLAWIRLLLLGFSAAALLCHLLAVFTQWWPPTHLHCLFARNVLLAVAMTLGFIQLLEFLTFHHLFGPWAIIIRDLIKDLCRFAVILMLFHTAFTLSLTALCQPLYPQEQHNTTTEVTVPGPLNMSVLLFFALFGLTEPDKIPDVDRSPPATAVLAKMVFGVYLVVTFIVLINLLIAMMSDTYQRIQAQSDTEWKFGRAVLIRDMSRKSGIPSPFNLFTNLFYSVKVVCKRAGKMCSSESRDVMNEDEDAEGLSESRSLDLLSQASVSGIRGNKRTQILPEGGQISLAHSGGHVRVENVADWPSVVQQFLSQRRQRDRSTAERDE

[5] = target: Heat shock protein HSP 90-alpha (Homo sapiens, UniProt P07900); experiment: Luminescence-based dose response biochemical high throughput screening assay for inhibitors of the Heat Shock Protein 90 (HSP90). [Related pubchem assays: 1831 (Summary AID.), 1846 (Confirmation screen.), 1789 (Primary screen.)]
[6] = target: T1, Estrogen receptor (Homo sapiens, UniProt P03372);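 further: potency for inhibiting coactivator peptide recruitment to the receptor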
T1 sequence (P03372 whole entry): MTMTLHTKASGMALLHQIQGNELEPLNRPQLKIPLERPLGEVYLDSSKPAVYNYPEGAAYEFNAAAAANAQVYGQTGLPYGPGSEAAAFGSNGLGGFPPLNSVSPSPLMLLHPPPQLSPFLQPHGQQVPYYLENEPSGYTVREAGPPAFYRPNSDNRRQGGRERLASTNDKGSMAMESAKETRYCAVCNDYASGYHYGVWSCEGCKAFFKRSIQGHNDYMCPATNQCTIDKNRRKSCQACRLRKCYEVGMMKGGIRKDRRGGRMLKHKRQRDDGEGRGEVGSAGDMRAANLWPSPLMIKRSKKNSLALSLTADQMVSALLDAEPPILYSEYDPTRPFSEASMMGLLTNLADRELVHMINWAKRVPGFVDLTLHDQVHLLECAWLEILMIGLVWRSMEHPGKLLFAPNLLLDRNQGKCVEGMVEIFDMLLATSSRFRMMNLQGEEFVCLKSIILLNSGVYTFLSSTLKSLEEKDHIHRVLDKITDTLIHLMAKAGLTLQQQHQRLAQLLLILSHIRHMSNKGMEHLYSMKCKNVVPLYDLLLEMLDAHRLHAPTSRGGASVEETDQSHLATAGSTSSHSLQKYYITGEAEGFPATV

[7] = Luminescence Cell-Based Dose Response to Identify Activators of 5'UTR Stem-Loop Driven Prion Protein mRNA Translation in H4-C Neuroglioblastoma Cells. [Related pubchem assays: 1829 (Project Summary), 1814 (Primary HTS)]; type: functional
[8] = Luminescence Cell-Based Dose Confirmation HTS to Identify Activators of 5'UTR Stem-Loop Driven Alpha-Synuclein mRNA Translation in H4 Neuroglioblastoma Cells. [Related pubchem assays: 1829 (Project Summary), 1814 (Primary HTS)]; type: functional
[9] = Luminescence Cell-Based Dose Response HTS to Identify Activators of Luciferase Translation or Activity in H4 […] Cells. [Related pubchem assays: 1829 (Project Summary), 1814 (Primary HTS)]; type: functional
[10] = test system: H4; experiment: Luminescence Cell-Based Dose Response HTS to Identify Activators of 5'UTR Stem-Loop Driven Prion Protein mRNA Translation in H4 Neuroglioblastoma Cells. [Related pubchem assays: 1829 (Project Summary), 1814 (Primary HTS)]; type: functional; settings: Homo sapiens
[11] = Luminescence Cell-Based Dose Response to Identify Activators of Luciferase Translation or Activity in H4-C Neuroglioblastoma Cells. [Related pubchem assays: 1829 (Project Summary), 1814 (Primary HTS)]; type: functional
[12] = Luminescence Cell-Based Dose Confirmation to Identify Activators of 5'UTR Stem-Loop Driven Alpha-Synuclein mRNA Translation in H4 Neuroglioblastoma Cells. [Related pubchem assays: 1829 (Project Summary), 1814 (Primary HTS)]; type: functional
[13] = cytotoxicity in HPDE-C7 cells, cell-based, fluorescence, HTS (AID 430); type: functional; settings: Homo sapiens
[14] = cytotoxicity in KRAS-transformed pancreatic duct cells, primary screen, cell-based, fluorescence, HTS (AID 431); type: functional; settings: Homo sapiens;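 further: cell line used: HPDE-C7K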
[15] = target: T2, Endoribonuclease toxin MazF (Escherichia coli K-12, UniProt P0AE70); experiment: MazF toxin RNase activators, dose response, biochemical, fluorescence, single-stranded RNA substrate, uHTS hits (AID 588481); type: functional
T2 sequence (P0AE70 whole entry): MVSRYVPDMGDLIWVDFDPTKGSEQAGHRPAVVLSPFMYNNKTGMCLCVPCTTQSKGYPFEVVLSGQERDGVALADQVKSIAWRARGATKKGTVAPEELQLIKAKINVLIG

[16] = target: T2, Endoribonuclease toxin MazF; experiment: fluorescent RNA oligo signal without MazF, dose response, counter-screen for MazEF activator project, biochemical, fluorescence, single-stranded RNase substrate (AID 588502); type: functional
[17] = target: T3, Protein Rev (Human immunodeficiency virus type 1 group M subtype B (isolate WMJ22)(HIV-1), UniProt P05866); experiment: HIV-1 Rev-RRE RNA binding disruptors, dose response, biochemical, protein-RNA interaction (AID 842); parameters: species or system Human immunodeficiency virus 1
T3 sequence (P05866 whole entry): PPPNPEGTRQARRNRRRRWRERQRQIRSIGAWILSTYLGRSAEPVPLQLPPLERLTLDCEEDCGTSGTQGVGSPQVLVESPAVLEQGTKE

[18] = target: Protein-tyrosine kinase 2-beta (Homo sapiens, UniProt Q14289);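 further: potency of inhibitors of PYK2 kinase phosphorylation of poly-GT substrate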
Sequence of Protein-tyrosine kinase 2-beta (Q14289 whole entry): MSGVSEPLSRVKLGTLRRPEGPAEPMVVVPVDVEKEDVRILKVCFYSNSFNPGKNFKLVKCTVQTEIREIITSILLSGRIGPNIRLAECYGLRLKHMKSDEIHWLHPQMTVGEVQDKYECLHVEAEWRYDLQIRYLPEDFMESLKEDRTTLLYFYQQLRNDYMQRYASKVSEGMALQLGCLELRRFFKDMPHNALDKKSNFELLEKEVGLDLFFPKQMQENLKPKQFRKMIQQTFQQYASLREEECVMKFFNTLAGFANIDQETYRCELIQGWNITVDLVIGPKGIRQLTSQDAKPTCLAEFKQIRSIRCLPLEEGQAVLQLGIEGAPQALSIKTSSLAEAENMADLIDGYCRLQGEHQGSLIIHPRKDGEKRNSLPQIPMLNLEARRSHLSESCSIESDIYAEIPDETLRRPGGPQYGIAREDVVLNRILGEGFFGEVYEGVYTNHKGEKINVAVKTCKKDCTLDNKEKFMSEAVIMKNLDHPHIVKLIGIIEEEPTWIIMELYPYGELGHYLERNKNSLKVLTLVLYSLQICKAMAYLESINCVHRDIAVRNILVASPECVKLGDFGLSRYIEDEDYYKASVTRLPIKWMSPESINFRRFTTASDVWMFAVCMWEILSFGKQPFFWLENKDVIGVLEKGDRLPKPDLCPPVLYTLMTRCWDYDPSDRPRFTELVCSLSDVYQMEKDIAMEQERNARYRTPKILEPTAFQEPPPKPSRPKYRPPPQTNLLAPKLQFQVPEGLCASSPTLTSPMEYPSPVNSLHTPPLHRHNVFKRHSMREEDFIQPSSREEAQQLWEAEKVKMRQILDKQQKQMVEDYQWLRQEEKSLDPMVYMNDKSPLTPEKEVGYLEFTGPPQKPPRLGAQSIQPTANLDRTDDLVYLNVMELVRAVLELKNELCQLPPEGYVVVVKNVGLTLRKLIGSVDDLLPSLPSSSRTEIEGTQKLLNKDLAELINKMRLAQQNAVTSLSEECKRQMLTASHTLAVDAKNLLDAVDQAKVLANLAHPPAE

[19] = target: DNA dC->dU-editing enzyme APOBEC-3G (Homo sapiens, UniProt Q9HC16); experiment: Dose Response confirmation of small molecule APOBEC3G DNA Deaminase Inhibitors via a fluorescence-based single-stranded DNA deaminase assay. [Related pubchem assays (depositor defined):AID493012, AID493028]; type: functional
Sequence of DNA dC->dU-editing enzyme APOBEC-3G (Q9HC16 whole entry, the tested form may be a part): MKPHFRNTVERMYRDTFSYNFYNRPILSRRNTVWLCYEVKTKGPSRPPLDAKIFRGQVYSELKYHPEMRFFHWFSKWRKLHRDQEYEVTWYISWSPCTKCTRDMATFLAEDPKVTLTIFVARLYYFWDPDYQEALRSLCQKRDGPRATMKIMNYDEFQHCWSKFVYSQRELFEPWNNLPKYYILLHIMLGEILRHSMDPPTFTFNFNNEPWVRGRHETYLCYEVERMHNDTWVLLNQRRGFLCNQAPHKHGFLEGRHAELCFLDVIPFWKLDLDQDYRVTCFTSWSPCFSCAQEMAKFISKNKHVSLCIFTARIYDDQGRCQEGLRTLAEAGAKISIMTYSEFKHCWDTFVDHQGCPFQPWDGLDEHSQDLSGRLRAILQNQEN

[20] = target: T4, Carboxy-terminal domain RNA polymerase II polypeptide A small phosphatase 1 (Homo sapiens, UniProt Q9GZU7); experiment: inhibitors of CTDSP1, concentration-response testing, biochemical assay, absorbance-based, actives from ultra-high-throughput screening (AID 540297); type: functional
T4 sequence (Q9GZU7 whole entry): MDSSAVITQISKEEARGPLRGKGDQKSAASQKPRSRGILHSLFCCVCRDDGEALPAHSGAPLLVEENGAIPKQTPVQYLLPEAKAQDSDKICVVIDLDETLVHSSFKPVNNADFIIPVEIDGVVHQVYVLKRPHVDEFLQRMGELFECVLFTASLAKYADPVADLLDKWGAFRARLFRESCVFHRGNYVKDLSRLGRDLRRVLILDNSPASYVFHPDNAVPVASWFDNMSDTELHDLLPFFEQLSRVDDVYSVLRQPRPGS

[21] = target: T5, Low molecular weight phosphotyrosine protein phosphatase (Homo sapiens, UniProt P24666); type: functional; settings: read-out: IC50_Mean
T5 sequence (P24666 whole entry): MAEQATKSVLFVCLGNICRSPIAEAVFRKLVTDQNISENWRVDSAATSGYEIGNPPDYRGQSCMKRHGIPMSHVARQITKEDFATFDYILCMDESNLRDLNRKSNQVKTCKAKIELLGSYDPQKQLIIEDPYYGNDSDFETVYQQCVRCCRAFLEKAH

[22] = target: T5, Low molecular weight phosphotyrosine protein phosphatase; type: functional; settings: read-out: IC50_Mean; remark: listed apart in the source
[23] = growth suppression of PTEN-null colon cells, dose response, cell-based, HCT116 PTEN knockout (AID 1047); type: functional;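 further: HCT116 colon tumor cells with PTEN knocked out; cells exposed to compound for 60 hours before readout; potency for loss of cell viability measured by luminescence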
[24] = growth suppression of beta-catenin-knockout colon cells, dose response, cell-based, HCT116, human colon tumor (AID 1045); type: functional;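 further: HCT116 colon tumor cells with beta catenin knocked out; cells exposed to compound for 60 hours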
[25] = test system: Vero; experiment: host cell cytotoxicity of antiviral hits, dose response, cytotoxicity control for West Nile virus antiviral project, secondary assay (AID 1650); type: functional; settings: Chlorocebus sabaeus
[26] = inhibitors of intracellular T. cruzi replication, confirmation, NIH3T3 host cells, beta-gal luminescence (AID 2044); type: functional, cell-based;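 further: intracellular parasites grown in NIH/3T3 mouse fibroblasts as host cells; luminescent beta-galactosidase reporter signal from transgenic T. cruzi replicating inside host cells; inhibitors lower the luminescence signal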
[27] = target: T6, Calpain-2 catalytic subunit (Sus scrofa, UniProt P43367); experiment: pig calpain II inhibitor potency, dose response, biochemical, fluorogenic peptide substrate (AID 1420); type: functional
T6 sequence (P43367 whole entry): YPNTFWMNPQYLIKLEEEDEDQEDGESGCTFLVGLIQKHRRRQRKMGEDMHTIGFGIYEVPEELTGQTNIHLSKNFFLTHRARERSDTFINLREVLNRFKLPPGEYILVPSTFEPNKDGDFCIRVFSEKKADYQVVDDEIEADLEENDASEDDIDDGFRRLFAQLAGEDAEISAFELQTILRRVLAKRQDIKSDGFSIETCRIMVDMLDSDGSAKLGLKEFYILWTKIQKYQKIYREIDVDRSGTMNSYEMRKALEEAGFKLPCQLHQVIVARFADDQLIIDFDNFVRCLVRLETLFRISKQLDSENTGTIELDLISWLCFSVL

[28] = target: T7, High affinity choline transporter 1 (Homo sapiens, UniProt Q9GZV3); experiment: CHT inhibitors, dose response, cell-based, 5-point CRC, membrane potential dye (AID 504840); type: functional
T7 sequence (Q9GZV3 whole entry): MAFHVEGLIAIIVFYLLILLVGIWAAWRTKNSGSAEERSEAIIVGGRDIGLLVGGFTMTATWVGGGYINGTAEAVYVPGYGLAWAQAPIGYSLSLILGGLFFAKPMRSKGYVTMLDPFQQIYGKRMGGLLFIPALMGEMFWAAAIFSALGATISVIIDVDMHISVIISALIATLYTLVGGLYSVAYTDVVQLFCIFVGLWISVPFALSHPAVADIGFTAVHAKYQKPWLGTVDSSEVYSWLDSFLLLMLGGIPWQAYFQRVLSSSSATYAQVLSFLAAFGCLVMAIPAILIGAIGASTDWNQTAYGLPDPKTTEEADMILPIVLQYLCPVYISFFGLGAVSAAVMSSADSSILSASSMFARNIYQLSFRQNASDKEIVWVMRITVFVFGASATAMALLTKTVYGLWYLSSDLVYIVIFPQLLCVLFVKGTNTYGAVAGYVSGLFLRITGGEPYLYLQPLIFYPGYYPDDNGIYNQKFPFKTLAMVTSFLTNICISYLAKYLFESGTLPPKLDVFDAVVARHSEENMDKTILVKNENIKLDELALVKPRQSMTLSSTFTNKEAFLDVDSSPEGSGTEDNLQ

[29] = HEp-2 cell cytotoxicity, dose response, cytotoxicity control for RSV inhibitor project, HTS (AID 2410); type: functional; settings: human respiratory syncytial virus
[30] = inhibitors of Bluetongue virus cytopathic effect, confirmation, arbovirus, BSR cells (AID 1250); type: functional;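 further: protection from viral cytopathic effect measured as cell viability by ATP luminescence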
[31] = target: Estrogen receptor beta (Homo sapiens, UniProt Q92731);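 further: recombinant ER-beta bound to coactivator SRC1 peptide in presence of estradiol agonist; inhibitors block coactivator peptide binding and lower the FRET signal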
Sequence of Estrogen receptor beta (Q92731 whole entry): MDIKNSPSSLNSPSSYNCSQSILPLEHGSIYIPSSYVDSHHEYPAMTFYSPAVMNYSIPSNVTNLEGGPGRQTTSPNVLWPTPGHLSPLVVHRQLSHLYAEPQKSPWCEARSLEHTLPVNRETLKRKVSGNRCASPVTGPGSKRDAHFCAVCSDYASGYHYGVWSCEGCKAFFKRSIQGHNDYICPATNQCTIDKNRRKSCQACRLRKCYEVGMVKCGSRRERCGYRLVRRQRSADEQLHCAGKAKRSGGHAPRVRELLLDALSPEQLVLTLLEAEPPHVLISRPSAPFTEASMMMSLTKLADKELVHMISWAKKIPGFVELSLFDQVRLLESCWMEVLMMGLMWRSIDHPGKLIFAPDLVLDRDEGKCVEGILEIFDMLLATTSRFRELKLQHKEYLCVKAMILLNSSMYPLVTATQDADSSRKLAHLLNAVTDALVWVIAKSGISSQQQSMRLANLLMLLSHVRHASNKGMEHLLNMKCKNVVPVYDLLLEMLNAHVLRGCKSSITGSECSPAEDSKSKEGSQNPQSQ

Sequence of 5-hydroxytryptamine receptor 1E (P28566 whole entry): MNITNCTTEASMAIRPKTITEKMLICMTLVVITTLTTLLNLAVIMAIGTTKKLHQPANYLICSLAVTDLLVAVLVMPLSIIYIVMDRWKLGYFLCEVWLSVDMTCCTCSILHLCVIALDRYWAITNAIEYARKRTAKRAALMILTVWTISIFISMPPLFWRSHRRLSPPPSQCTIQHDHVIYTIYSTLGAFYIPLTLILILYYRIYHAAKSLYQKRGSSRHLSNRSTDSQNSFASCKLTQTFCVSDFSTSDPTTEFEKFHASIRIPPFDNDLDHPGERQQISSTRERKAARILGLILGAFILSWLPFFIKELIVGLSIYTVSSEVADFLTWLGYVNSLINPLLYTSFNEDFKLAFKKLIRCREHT

## O=C(Nc1ccc(F)cc1F)c1c(C(F)(F)F)ccnc1Oc1ccc(Cl)cc1
[1]
  IC50: > 50 µM (not active)
[2]
  IC50: 4.29 µM (active)

## COc1ccc(OC)c(N(CC(=O)N2CCCCC2)S(=O)(=O)c2ccc(OC)c(OC)c2)c1
[3]
  EC50: 1.67 µM (active)
[4]
  EC50: 25.6 µM (not active)

## CCCc1ccc(OCc2ccc(C(=O)N3CCSCC3)o2)cc1
[5]
  IC50: 0.904 µM (active)

## COC(=O)c1ccc(CSc2nc(C)nc3sc(C)c(C)c23)o1
[6]
  IC50: 48.9 µM (not active)

## O=C1c2ccccc2C(=O)c2c1ccc1c(O)n(-c3ccccc3)nc21
[7]
  EC50: 0.563 µM (active)
[8]
  EC50: < 0.1 µM (active)
[9]
  EC50: < 0.1 µM (active)
[10]
  EC50: 59.2 µM (inconclusive)
[11]
  EC50: 0.478 µM (active)
[12]
  EC50: 0.36 µM (active)

## CCN(CC)c1nc2ccccc2nc1C(C#N)C(=O)NCCc1ccccc1 (centres undefined)
[13]
  EC50: > 20 µM (not active)
[14]
  EC50: > 20 µM (not active)
[15]
  EC50: > 99 µM (inactive)
[16]
  EC50: > 99 µM (inactive)

## Cc1ccc(C(=O)NNC(=O)CSc2n[nH]c3c4cc(F)ccc4nc-3n2)cc1
[17]
  IC50: > 79.4 µM (not active)
[18]
  IC50: 5.25 µM (active)
[19]
  IC50: 28.6 µM (active)
[20]
  IC50: 5.22 µM (active)
[21]
  IC50: 14.6 µM (active)
[22]
  IC50: 17.5 µM (active)

## N#Cc1cccc(NC(=O)CSc2ccc3c4c(cccc24)C(=O)c2ccccc2-3)c1
[23]
  EC50: 15.3 µM (active)
[18]
  IC50: 4.87 µM (active)
[24]
  EC50: 19.6 µM (active)

## O=C(CSc1ncccc1C(=O)O)c1ccc2ccccc2c1
[5]
  IC50: 0.391 µM (active)

## CCOC(=O)c1ccccc1NC(=O)c1c(F)c(F)c(F)c(F)c1F
[13]
  EC50: 15.7 µM (active)
[14]
  EC50: 13.6 µM (active)

## CCCCN(CCCC)S(=O)(=O)c1ccc(NC(=O)c2ccc([N+](=O)[O-])cc2Cl)cc1
[25]
  CC50: 10.1 µM (active)
[26]
  EC50: 0.798 µM (active)
[27]
  IC50: 1.42 µM (not active)
[28]
  IC50: 12.6 µM (active)

## CCOc1ccc(/C=C2\SC(=S)N(CCC(=O)N(CCO)c3ccccc3)C2=O)cc1
[25]
  CC50: 33.5 µM (active)

## O=C(N/N=C/c1ccc(-c2ccc([N+](=O)[O-])cc2)o1)[C@H]1C[C@@H]1c1ccccc1
[1]
  IC50: 1.96 µM (active)
[2]
  IC50: 3.03 µM (active)

## COC(=O)c1c(N(S(C)(=O)=O)S(C)(=O)=O)sc2c1CCN(c1ncc(C(F)(F)F)cc1Cl)C2
[29]
  CC50: 16.9 µM (active)
[30]
  IC50: 29.2 µM (active)

## Cc1ccc(Sc2c(CO)c(-c3ccccc3)nn2C)cc1
[7]
  EC50: 1.37 µM (inconclusive)
[9]
  EC50: > 120 µM (not active)
[10]
  EC50: > 120 µM (not active)
[11]
  EC50: > 3.8 µM (not active)
[12]
  EC50: 0.658 µM (inconclusive)

## CCOc1ccccc1-c1nc(-c2cc3ccccc3nc2OC)no1
[31]
  IC50: > 50 µM (not active)

## O=C1CC(/C=C/c2ccco2)=Nc2ccccc2N1
[6]
  IC50: > 50 µM (not active)
